From patent US12604895B2, “Pesticidally active cyclic amine compounds” (SYNGENTA CROP PROTECTION AG, priority 2020, dated 2026)

Key:
Assay type in all cases: in vivo
[1] = tested on: Tetranychus urticae (Two-Spotted Spider Mite); assay: Example B5: Tetranychus urticae (Two-Spotted Spider Mite), feeding/contact activity; details: foliar, 192 h, application rate of 200 ppm, mixed population (mobile stages) on sprayed bean leaf discs, 8 days after infestation
Procedure: Example B5: Tetranychus urticae (Two-Spotted Spider Mite): Feeding/Contact Activity
Bean leaf discs on agar in 24-well microtiter plates were sprayed with aqueous test solutions prepared from 10′000 ppm DMSO stock solutions. After drying the leaf discs were infested with a mite population of mixed ages. The samples were assessed for mortality on mixed population (mobile stages) 8 days after infestation.

[2] = tested on: Diabrotica balteata (Corn Root Worm); assay: Example B1: Diabrotica balteata (Corn Root Worm), sprayed maize sprouts; details: 96 h, application rate of 200 ppm, L2 larvae on sprayed maize sprouts, 4 days after infestation, read-out: control in at least one of the two categories (mortality or growth inhibition)
Procedure: Example B1: Diabrotica balteata (Corn Root Worm)
Maize sprouts placed onto an agar layer in 24-well microtiter plates were treated with aqueous test solutions prepared from 10′000 ppm DMSO stock solutions by spraying. After drying, the plates were infested with L2 larvae (6 to 10 per well). The samples were assessed for mortality and growth inhibition in comparison to untreated samples 4 days after infestation.
The following compounds gave an effect of at least 80% control in at least one of the two categories (mortality or growth inhibition) at an application rate of 200 ppm: P1.2, P2.1, P2.2, P2.5, P2-17, P3.4, P7.1, P8.1

[3] = tested on: Plutella xylostella (Diamond Back Moth); assay: Example B3: Plutella xylostella (Diamond Back Moth), artificial diet; details: 192 h, application rate of 200 ppm, eggs, treated artificial diet, 8 days after infestation, read-out: control in at least one of the two categories (mortality or growth inhibition)
Procedure: Example B3: Plutella xylostella (Diamond Back Moth)
24-well microtiter plates with artificial diet were treated with aqueous test solutions prepared from 10′000 ppm DMSO stock solutions by pipetting. After drying, Plutella eggs were pipetted through a plastic stencil onto a gel blotting paper and the plate was closed with it. The samples were assessed for mortality and growth inhibition in comparison to untreated samples 8 days after infestation. The following compounds gave an effect of at least 80% control in at least one of the two categories (mortality or growth inhibition) at an application rate of 200 ppm: P1.2, P1.15, P1.51, P2.1, P2.2, P2.5, P2.10, P2.15, P2.16, P5.1, P5.2, P5.3, P7.1, P8.1

[4] = tested on: Euschistus heros (Neotropical Brown Stink Bug); assay: Example B2: Euschistus heros (Neotropical Brown Stink Bug), sprayed soybean leaves; details: 120 h, application rate of 200 ppm, N2 nymphs on sprayed soybean leaves, 5 days after infestation, read-out: control in at least one of the two categories (mortality or growth inhibition)
Procedure: Example B2: Euschistus heros (Neotropical Brown Stink Bug)
Soybean leaves on agar in 24-well microtiter plates were sprayed with aqueous test solutions prepared from 10′000 ppm DMSO stock solutions. After drying the leaves were infested with N2 nymphs. The samples were assessed for mortality and growth inhibition in comparison to untreated samples 5 days after infestation.
The following compounds gave an effect of at least 80% control in at least one of the two categories (mortality or growth inhibition) at an application rate of 200 ppm: P2.1., P8.1

| Compound | mortality at 200 ppm [1] | percent control (mortality or growth inhibition) at 200 ppm [2] | percent control (mortality or growth inhibition) at 200 ppm [3] | percent control (mortality or growth inhibition) at 200 ppm [4] |
| --- | --- | --- | --- | --- |
| CCOc1cc(-c2ccc(C(F)(F)F)cc2)c(C#N)cc1C(=O)N1CCC(CSCC)CC1 [Compound P1.46, 4-Ethoxy-5-[4-(ethylsulfanylmethyl)piperidine-1-carbonyl]-2-[4-(trifluoromethyl)phenyl]-benzonitrile] | ≥ 80% |  |  |  |
| CCOc1cc(-c2ccc(C(F)(F)F)cc2)c(C#N)cc1C(=O)N1CCN(c2ncc(Cl)cc2Cl)CC1 [Compound P2.5, 5-[4-(3,5-Dichloro-2-pyridyl)piperazine-1-carbonyl]-4-ethoxy-2-[4-(trifluoromethyl)-phenyl]-benzonitrile] | ≥ 80% | ≥ 80% | ≥ 80% |  |
| Cc1nc(C2CCN(C(=O)c3cc(C#N)c(-c4ccc(C(F)(F)F)cc4)cc3C(F)(F)F)CC2)no1 [Compound P1.1, 5-[4-(5-Methyl-1,2,4-oxadiazol-3-yl)piperidine-1-carbonyl]-4-(trifluoromethyl)-2-[4-(trifluoromethyl)phenyl]benzonitrile] | ≥ 80% |  |  |  |
| Cc1nc(C2CCN(C(=O)c3cc(C#N)c(-c4ccc(C(F)(F)F)cc4)c(C#N)c3C)CC2)no1 [Compound P6.1] | ≥ 80% |  |  |  |
| CCCSCC1CN(C(=O)c2cc(C#N)c(-c3ccc(C(F)(F)F)cc3)cc2C(F)(F)F)C1 [Compound P3.9, 5-[3-(propylsulfanylmethyl)azetidine-1-carbonyl]-4-(trifluoromethyl)-2-[4-(trifluoromethyl)-phenyl]benzonitrile] | ≥ 80% |  |  |  |
| N#Cc1cc(C(=O)N2CCN(c3ncc(Cl)cc3Cl)CC2)c(C(F)(F)F)cc1-c1ccc(C(F)(F)F)cc1 [Compound P2.1, 5-[4-(3,5-Dichloro-2-pyridyl)piperazine-1-carbonyl]-4-(trifluoromethyl)-2-[4-(trifluoromethyl)phenyl]benzonitrile] | ≥ 80% | ≥ 80% | ≥ 80% | ≥ 80% |
| NC(=S)c1cc(C(=O)N2CCN(c3ncc(Cl)cc3Cl)CC2)c(C(F)(F)F)cc1-c1ccc(C(F)(F)F)cc1 [Compound P8.1, 5-[4-(3,5-Dichloro-2-pyridyl)piperazine-1-carbonyl]-4-(trifluoromethyl)-2-[4-(trifluoromethyl)phenyl]benzenecarbothioamide] | ≥ 80% | ≥ 80% | ≥ 80% | ≥ 80% |
| CCC[S+]([O-])CC1CN(C(=O)c2cc(C#N)c(-c3ccc(C(F)(F)F)cc3)cc2C(F)(F)F)C1 (stereo not shown) [Compound P3.7, 5-[3-(Propylsulfinylmethyl)azetidine-1-carbonyl]-4-(trifluoromethyl)-2-[4-(trifluoromethyl)phenyl]-benzonitrile] | ≥ 80% |  |  |  |
